Experiments:
Experiment in all cases: NanoBRET tracer displacement in live HEK293T cells
Type in all cases: cell-based
[1] = molecular target: DDR1 (Homo sapiens, UniProt Q08345)
[2] = molecular target: JAK1 (Homo sapiens, UniProt P23458)
[3] = molecular target: PNCK (Homo sapiens, UniProt Q6P2M8)
[4] = molecular target: PIK3CA (Homo sapiens, UniProt P42336)
[5] = molecular target: MAPK9 (Homo sapiens, UniProt P45984)

Measured: IC50

Chain of PIK3CA (P42336 whole entry): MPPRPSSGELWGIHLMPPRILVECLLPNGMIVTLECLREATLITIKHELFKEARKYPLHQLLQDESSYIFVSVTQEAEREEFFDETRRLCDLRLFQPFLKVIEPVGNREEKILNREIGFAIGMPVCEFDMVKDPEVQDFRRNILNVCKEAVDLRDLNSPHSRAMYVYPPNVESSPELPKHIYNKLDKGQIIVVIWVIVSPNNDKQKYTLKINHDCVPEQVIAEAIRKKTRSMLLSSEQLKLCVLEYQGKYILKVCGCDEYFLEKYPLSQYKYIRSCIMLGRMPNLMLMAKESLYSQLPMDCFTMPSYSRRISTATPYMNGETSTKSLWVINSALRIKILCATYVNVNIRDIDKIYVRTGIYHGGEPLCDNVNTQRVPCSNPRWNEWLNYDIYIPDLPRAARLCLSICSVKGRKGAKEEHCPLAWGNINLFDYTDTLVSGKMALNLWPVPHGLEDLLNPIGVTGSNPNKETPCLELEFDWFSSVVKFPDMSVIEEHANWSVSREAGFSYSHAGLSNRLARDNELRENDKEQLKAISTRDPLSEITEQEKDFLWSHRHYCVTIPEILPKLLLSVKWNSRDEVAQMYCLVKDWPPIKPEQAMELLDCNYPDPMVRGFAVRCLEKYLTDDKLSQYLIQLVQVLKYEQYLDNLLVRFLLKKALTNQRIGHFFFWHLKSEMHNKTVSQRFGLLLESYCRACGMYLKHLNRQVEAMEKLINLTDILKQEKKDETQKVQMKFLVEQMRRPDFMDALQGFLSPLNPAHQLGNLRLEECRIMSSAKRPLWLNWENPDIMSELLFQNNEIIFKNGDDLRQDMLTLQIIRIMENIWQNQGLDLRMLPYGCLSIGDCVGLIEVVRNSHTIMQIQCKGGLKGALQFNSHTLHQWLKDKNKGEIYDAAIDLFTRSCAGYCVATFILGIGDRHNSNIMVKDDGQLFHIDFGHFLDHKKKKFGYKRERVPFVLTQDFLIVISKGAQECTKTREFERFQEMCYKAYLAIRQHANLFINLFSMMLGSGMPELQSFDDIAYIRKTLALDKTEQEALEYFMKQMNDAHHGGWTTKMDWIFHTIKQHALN
Chain of MAPK9 (P45984 whole entry): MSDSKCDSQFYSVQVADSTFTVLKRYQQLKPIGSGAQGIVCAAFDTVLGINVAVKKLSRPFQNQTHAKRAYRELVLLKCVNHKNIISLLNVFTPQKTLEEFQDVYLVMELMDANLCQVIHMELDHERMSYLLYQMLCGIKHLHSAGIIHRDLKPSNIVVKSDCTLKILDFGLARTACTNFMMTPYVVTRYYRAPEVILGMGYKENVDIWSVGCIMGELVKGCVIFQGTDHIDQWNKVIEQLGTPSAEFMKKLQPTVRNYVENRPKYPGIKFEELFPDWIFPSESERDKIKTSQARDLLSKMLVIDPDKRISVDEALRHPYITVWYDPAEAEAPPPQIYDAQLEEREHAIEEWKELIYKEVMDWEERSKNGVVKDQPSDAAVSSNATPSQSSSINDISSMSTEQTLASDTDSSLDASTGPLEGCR
Chain of DDR1 (Q08345 19-913): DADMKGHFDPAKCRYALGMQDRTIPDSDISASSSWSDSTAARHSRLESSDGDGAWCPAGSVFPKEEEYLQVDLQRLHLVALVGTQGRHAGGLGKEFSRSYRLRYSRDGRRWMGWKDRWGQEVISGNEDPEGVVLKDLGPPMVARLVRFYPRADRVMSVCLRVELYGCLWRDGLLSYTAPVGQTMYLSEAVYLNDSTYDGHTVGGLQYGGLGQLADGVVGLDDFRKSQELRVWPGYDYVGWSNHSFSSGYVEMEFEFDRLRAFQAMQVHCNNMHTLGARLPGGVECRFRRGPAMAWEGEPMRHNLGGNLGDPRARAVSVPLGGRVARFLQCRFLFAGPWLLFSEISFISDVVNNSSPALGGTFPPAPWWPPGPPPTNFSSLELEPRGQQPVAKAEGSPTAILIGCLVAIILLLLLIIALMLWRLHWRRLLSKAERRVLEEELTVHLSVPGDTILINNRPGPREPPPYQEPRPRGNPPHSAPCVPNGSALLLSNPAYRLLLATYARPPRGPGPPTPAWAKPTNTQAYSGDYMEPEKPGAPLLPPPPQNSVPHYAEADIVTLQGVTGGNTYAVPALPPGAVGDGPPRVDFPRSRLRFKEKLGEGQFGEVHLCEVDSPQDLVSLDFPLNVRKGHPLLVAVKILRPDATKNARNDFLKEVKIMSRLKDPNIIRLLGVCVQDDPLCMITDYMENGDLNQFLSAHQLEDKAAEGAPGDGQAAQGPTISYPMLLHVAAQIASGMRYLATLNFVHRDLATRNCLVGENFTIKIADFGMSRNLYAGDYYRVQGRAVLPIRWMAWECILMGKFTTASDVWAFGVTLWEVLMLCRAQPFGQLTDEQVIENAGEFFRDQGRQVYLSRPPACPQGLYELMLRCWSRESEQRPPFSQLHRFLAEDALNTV
Chain of PNCK (Q6P2M8 whole entry): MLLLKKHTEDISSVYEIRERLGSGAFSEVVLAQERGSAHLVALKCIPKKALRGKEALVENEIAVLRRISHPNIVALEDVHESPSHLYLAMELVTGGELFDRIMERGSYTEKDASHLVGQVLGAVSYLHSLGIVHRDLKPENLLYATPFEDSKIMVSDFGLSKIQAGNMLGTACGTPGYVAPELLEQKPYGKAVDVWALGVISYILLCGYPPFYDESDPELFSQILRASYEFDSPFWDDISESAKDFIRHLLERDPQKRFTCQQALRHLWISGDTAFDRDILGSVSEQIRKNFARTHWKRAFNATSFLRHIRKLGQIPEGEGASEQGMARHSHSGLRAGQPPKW
Chain of JAK1 (P23458 whole entry): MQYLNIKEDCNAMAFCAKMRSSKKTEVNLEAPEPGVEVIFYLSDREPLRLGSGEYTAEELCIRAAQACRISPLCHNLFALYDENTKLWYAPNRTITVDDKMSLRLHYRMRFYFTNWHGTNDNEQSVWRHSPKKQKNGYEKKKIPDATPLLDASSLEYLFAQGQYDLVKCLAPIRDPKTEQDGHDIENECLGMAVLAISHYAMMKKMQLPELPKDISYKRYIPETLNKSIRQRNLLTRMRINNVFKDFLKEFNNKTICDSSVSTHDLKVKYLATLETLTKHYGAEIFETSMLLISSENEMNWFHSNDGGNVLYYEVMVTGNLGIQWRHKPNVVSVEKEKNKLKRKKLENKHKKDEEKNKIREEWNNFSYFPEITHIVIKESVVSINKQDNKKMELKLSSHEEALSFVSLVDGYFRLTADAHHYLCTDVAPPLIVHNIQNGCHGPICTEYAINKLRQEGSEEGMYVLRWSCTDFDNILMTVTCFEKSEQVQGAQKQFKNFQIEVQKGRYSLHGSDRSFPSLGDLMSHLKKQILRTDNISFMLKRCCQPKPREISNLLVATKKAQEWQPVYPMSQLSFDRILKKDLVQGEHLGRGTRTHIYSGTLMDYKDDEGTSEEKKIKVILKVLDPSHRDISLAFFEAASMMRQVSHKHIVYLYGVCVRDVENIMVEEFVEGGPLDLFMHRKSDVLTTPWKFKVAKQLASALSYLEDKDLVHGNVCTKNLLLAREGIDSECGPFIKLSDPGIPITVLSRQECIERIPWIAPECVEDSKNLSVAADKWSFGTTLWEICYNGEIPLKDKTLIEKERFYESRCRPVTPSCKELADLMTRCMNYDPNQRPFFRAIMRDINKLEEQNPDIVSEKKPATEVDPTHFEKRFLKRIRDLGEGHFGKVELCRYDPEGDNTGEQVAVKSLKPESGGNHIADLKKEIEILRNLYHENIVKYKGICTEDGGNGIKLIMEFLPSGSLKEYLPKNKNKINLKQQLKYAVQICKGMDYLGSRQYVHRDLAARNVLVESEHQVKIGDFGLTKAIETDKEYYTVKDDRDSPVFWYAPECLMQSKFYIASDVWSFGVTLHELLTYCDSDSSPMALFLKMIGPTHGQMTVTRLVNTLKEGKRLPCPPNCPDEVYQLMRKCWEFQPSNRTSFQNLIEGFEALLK

Cc1cnc(-c2cc(Cl)ccc2F)cc1-n1c(=O)n(CC(N)=O)c2ccccc21 [compound 15, THAI11]
> 20 µM: all assays above

Cc1ccc2c(c1)n(CC(N)=O)c(=O)n2-c1cc(-c2cc(Cl)ccc2F)ncc1C [compound 16, THAI14]
> 20 µM: all assays above

— publication doi:10.1101/2020.01.23.916502v1 (biorxiv, 2020)
